Source: PMC8096218, “Global RNA profiles show target selectivity and physiological effects of peptide-delivered antisense antibiotics” (Nucleic Acids Research, 2021)
Where “and” joins values, the source holds several entries; their conditions need not be identical. Equal values may be shown once.

Experiments:
Format in all cases: cell-based, Salmonella enterica serovar Typhimurium
LT2 PhoP^C = assay: MIC determination by broth microdilution; conditions: ∼10^5 cfu/ml; for increase in the MIC in the PhoP^C background compared to the wild-type strain: LT2 PhoP^C versus LT2 wt; for MIC in μM, LT2 PhoP^C: Table 3, three biological replicates
Description: MIC values were determined by broth microdilution according to standard protocols with a few modifications ([26]). An overnight bacterial cell culture, supplemented with the appropriate antibiotic when needed, was diluted 1:100 in fresh MHB and grown to OD600 0.5. The obtained culture was diluted to ∼10^5 cfu/ml or 10^6 cfu/ml, as indicated, in non-cation-adjusted MHB. Subsequently, 190 μl bacterial solution was dispensed into a 96-well plate (Thermo Fisher Scientific) along with 10 μl of a 20x PPNA, PNA or peptide working solution. Growth was monitored by measuring the OD at 600 nm every 20 min in a Synergy H1 plate reader (Biotek) with continuous double-orbital shaking (237 cpm) at 37°C for 24 h.
Fig. S5. Growth k inetics for MIC determ ination of 10^5 cfu/m l Salmonella wt (LT 2) and its isogenic
Pho PC m utant in the presen ce of var ying co ncentra tio n s of the in dicat ed co njugat e s. ( A) KFF-acpP,
KFF-acpP-scram bled (scr) or KFF peptide in s erial dilutions from 10 µM to 0.3 µM. ( B) RXR- acpP,
RXR- acpP-scram bled (scr) or RXR peptide in serial dilutions from 10 µM to 0.3 µ M. ( C) T at-acpP,
T at-acpP-scram bled (scr) or T at peptide in serial dilutions from 20 µM to 0.6 µM. Data represent
the average of three biological replicates, error bars indicate standard error of the m ean (SEM).
(1 picture or pasted object on this page, not shown here)

acpP mRNA = assay: RNA-seq differential expression, target transcript; conditions: 5 μM KFF-/RXR-constructs, 10 μM Tat-constructs, triplicates; for reduction in acpP transcript levels (RNA-seq): 15 min post treatment, ∼10^6 cfu/ml, versus water control; for logFC acpP: edgeR, versus water, 15 min
Description: Bacterial overnight cultures were diluted 1:100 in fresh MHB and grown to OD600 0.5. The obtained cultures were diluted to ∼10^6 cfu/ml in non-cation-adjusted MHB. Afterward, the bacterial solution was transferred into low-binding 5 ml tubes (LABsolute) along with the 20× PNA, peptide or PPNA solution. The final concentrations were 5 μM for KFF- and RXR-PNAs, and 10 μM for Tat-PNAs. Equimolar concentrations were used for the respective peptide control conditions. As a negative control, cells were treated with the respective volume of sterile nuclease-free water, which was used as solvent for the test compounds.
A time kinetic was performed for subsequent northern blot analysis (5, 10, 15 min), in which the reaction was stopped at the indicated time points by using RNAprotect Bacteria (Qiagen). For RNA-seq analyses, adding RNAprotect Bacteria at 15 min post treatment stopped the reactions with the indicated PPNA constructs or the respective peptide. After vortexing for 5 s, the samples were incubated at room temperature for 10 min, followed by cell pelleting at 4°C and 21 100 ×g for 20 min. Pellets were directly used for RNA isolation or stored at –20°C (<2 days) until further processing. RNA was purified from bacterial pellets using isolation protocol #3, as described above (0.5 mg/ml lysozyme, miRNeasy).
DNase treatment, cDNA library preparation and sequencing was conducted at Vertis (Munich, Germany). The RNA samples were first fragmented using ultrasound (4 pulses of 30 s each at 4°C). Then, an oligonucleotide adapter was ligated to the 3′ ends of the RNA molecules. First-strand cDNA synthesis was performed using M-MLV reverse transcriptase and the 3′ adapter as primer. The first-strand cDNA was purified and the 5′ Illumina TruSeq sequencing adapter was ligated to the 3′ end of the antisense cDNA. The resulting cDNA was PCR-amplified to about 10–20 ng/μl using a high fidelity DNA polymerase. The cDNA was purified using the Agencourt AMPure XP kit (Beckman Coulter Genomics) and was analyzed by capillary electrophoresis. For Illumina NextSeq sequencing, the samples were pooled in approximately equimolar amounts. The cDNA pool was sequenced on an Illumina NextSeq 500 system using 75 bp read length.
Reads from the RNA-Seq experiments were trimmed, filtered and mapped against the S. enterica subsp. enterica serovar Typhimurium SL1344 reference genome and the three plasmids pSLT_SL1344, pCol1B9_SL1344 (other name is p2), and pRSF1010_SL1344 ([19]). BBDuk was applied to trim bases with a Phred quality score of <10, and adapters were removed simultaneously. Reads were then mapped against the reference genome using BBMap (v38.84) and then assigned genomic features, including both coding sequences and annotated sRNAs ([19],[29]) using the featureCounts method of the Subread (2.0.1) package.
All downstream analysis was performed using packages from the R/Bioconductor project. The raw read counts were imported and analyzed with edgeR (v3.30.0). Each set of PNA-peptide conjugate experiments (i.e. experiments with KFF, RXR and Tat peptide) was analyzed simultaneously. Genes with less than 14.6 counts per million (CPM) in at least three libraries were filtered. This cutoff value was calculated using 10/L, where L is the library size of the smallest sample (minimum library size) in millions.
Raw read counts were normalized by trimmed mean of M values (TMM) normalization. Differential expression analysis was conducted using edgeR ([31]). Estimation of quasi-likelihood (QL) dispersions was then run with the […] function. Then contrasts between all samples versus the water controls were created as input for the glmQLTest function.
Genes with an absolute fold change >2 and an adjusted P-value (Benjamini–Hochberg, ([32])) <0.001 were considered differentially expressed.

Salmonella wt = assay: Kinetics of bactericidal effects (cfu determination and spot assay); conditions: ∼10^6 cfu/ml, 5 μM KFF-acpP, 5 μM RXR-acpP, 10 μM Tat-acpP versus scrambled counterparts; for time post treatment from which killing / reduced cfu/ml was visible: time points 15, 20, 40, 60, 120 min, performed three times
Description: An overnight bacterial cell culture was diluted 1:100 in fresh MHB and grown to OD600 0.5. The obtained culture was diluted to approximately 10^6 cfu/ml in non-cation-adjusted MHB. Afterwards, aliquots of 10 μl were directly used as input condition for cfu determination and spot assay on LB agar plates. Regarding the latter, serial dilutions were prepared as indicated, to evaluate the alteration of living bacteria upon exposure to the different PPNAs. At the same time, 190 μl of this bacterial solution was placed into 2 ml eppendorf tubes along with 10 μl of a 20× on-target or scrambled PPNA solution, adjusting the indicated MICs. At the indicated time points post treatment, aliquots were used for cfu determination and spot assay.
Figure 3. Kinetics of bactericidal effects for (A) 5 μM KFF-acpP versus 5 μM KFF-acpP-scr, (B) 5 μM RXR-acpP versus 5 μM RXR-acpP-scr and (C) 10 μM Tat-acpP versus 10 μM Tat-acpP-scr against Salmonella wt (∼10^6 cfu/ml). After the indicated time points post treatment (15, 20, 40, 60, 120 min), aliquots of each sample were harvested to determine the number of viable cells over time (cfu/ml […]; left panels). Additional aliquots were subjected to spot assays on LB agar plates, including the indicated dilutions (right panels). The experiment was performed three times. Error bars indicate standard error of the mean.

Sequence | increase in the MIC in the PhoP^C background compared to the wild-type strain (LT2 PhoP^C) | MIC in μM, LT2 PhoP^C (LT2 PhoP^C) | reduction in acpP transcript levels (RNA-seq) (acpP mRNA) | logFC acpP (acpP mRNA) | bactericidal effects (cfu/ml, spot assay) (Salmonella wt) | time post treatment from which killing / reduced cfu/ml was visible (Salmonella wt) [min]
RXRRXRRXRRXRXB [RXR-acpP, RXR peptide conjugated to 10-mer antisense PNA against acpP] | 2 fold | 2.5 µM | 4.5- to 5 fold | -2.35 | fast and strong killing | ≥ 15
GRKKKRRQRRRYK [Tat-acpP, Tat peptide conjugated to 10-mer antisense PNA against acpP] | at least two to four times more resistant | 10 µM | ~3 fold | -1.6191 | time-delayed and less pronounced | ≥ 40
KFFKFFKFFK [KFF-acpP, KFF peptide conjugated to 10-mer antisense PNA against the translational start site of acpP] | – | did not influence the inhibitory activity and 1.25 μM | 4.5- to 5 fold | -2.241 | fast and strong killing | ≥ 15
